Measurements from publication PMC7238052, “Novel and Modified Neutrophil Elastase Inhibitor Loaded in Topical Formulations for Psoriasis Management” (Pharmaceutics, 2020).
Read-outs that look alike come from different tables or passages of the source.

Experiments:
[1] = molecular target: T1, Human neutrophil elastase (HNE) (Homo sapiens, UniProt P08246); assay: fluorometric protease assay, MeO-Suc-Ala-Ala-Pro-Val-AMC; assay type: biochemical
T1 construct: gene ELANE; isolated enzyme, single polypeptide chain
T1 sequence (P08246 30-247): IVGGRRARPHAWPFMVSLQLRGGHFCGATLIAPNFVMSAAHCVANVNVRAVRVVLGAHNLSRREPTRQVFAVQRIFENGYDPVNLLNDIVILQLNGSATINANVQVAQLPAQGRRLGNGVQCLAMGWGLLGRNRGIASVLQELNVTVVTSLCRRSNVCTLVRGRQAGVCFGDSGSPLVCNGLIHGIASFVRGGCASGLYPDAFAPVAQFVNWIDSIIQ
Description: fluorometric protease assay, MeO-Suc-Ala-Ala-Pro-Val-AMC on Human neutrophil elastase (HNE)

[2] = tested on: T2, chymotrypsin; assay: fluorometric protease assay, Suc-Ala-Ala-Pro-Phe-AMC; assay type: biochemical, Homo sapiens; conditions: […] Tris-HCl, […] NaCl pH […] °C; read-out: IC50 ± SD (μM) / Chymotrypsin
T2 construct: gene CTRB1; enzyme from human pancreas
Description: fluorometric protease assay, Suc-Ala-Ala-Pro-Phe-AMC on chymotrypsin

[3] = tested on: T3, trypsin; assay: fluorometric protease assay, Z-Gly-Gly-Arg-AMC; assay type: biochemical, Homo sapiens; conditions: […] Tris-HCl, […] NaCl pH […] °C; read-out: IC50 ± SD (μM) / Trypsin
T3 construct: gene PRSS1; enzyme from human pancreas
Description: fluorometric protease assay, Z-Gly-Gly-Arg-AMC on trypsin

[4] = molecular target: T4, urokinase (Homo sapiens, UniProt P00749); assay: fluorometric protease assay, Z-Gly-Gly-Arg-AMC; assay type: biochemical; conditions: read-out: IC50 ± SD (μM) / Urokinase
T4 construct: gene PLAU; isolated enzyme; source not clearly stated
Description: fluorometric protease assay, Z-Gly-Gly-Arg-AMC on urokinase

[5] = tested on: T5, kallikrein; assay: fluorometric protease assay, H-Pro-Phe-Arg-AMC; assay type: biochemical, Homo sapiens; conditions: […] Tris-HCl, […] NaCl pH […] °C; read-out: IC50 ± SD (μM) / Kallikrein
T5 construct: gene KLKB1
Description: fluorometric protease assay, H-Pro-Phe-Arg-AMC on kallikrein

Row | Compound | IC50 ([1]; read-out: IC50 ± SD) [nM] | IC50 [2] [µM] | IC50 [3] [µM] | IC50 [4] [µM] | IC50 [5] [µM] | IC50 ([1]; read-out: IC50 ± SD (nM) / HNE) [nM]
1 | CCC1(CC)C(=O)N(c2ccc(COc3ccc4ccc(=O)oc4c3)cc2)C1=O [compound 1, 3,3-diethyl-1-(4-(((2-oxo-2H-chromen-7-yl)oxy)methyl)phenyl)-azetidine-2,4-dione] | 0.42 ± 0.09 | > 8 | > 1 | > 50 |  | 
2 | CCC1(CC)C(=O)N(c2ccc(CSc3nc4cc(C(=O)NCCCNc5ccc([N+](=O)[O-])c6nonc56)ccc4o3)cc2)C1=O [compound 16, 2-((4-(3,3-diethyl-2,4-dioxoazetidin-1-yl)benzyl)thio)-N-(3-((7nitrobenzo[c][1,2,5]oxadiazol-4-yl)amino)propyl)benzo[d]oxazole-5-carboxamide] |  |  | > 1 | > 2 | > 5 | 0.85 ± 0.1
3 | CCC1(CC)C(=O)N(c2ccc(C(=O)NCCCNc3ccc([N+](=O)[O-])c4nonc34)cc2)C1=O [compound 17] |  | > 0.5 | > 1 | > 2 | > 3 | 0.64 ± 0.03

The next lines start with the values.

Row | IC50 ([1]; read-out: IC50 ± SD) [nM] | IC50 [2] [µM] | IC50 [3] [µM] | IC50 [4] [µM] | IC50 [5] [µM] | IC50 ([1]; read-out: IC50 ± SD (nM) / HNE) [nM] | Compound
4 | 0.64 ± 0.03 |  |  |  |  |  | CCC1(CC)C(=O)N(c2ccc(CBr)cc2)C1=O [compound 6]
5 | 0.96 ± 0.13 |  |  |  |  |  | CCC1(CC)C(=O)N(c2ccc(C(=O)OCc3ccccc3)cc2)C1=O [compound 8]
6 | 14.7 ± 5.55 |  |  |  |  |  | CCC1(CC)C(=O)N(c2ccc(C(=O)O)cc2)C1=O [compound 9]
